Experimental data from patent US20240228950A1, “MICROPATTERNED 3D HYDROGEL MICROARRAY IN FLUIDIC CHANNELS FOR SPHEROID-IN-GEL CULTURE” (NANYANG TECHNOLOGICAL UNIVERSITY, priority 2021, published 2024).

Tests used:
Assay type in all cases: cell-based, human
[1] = tested on: HUVEC endothelial barrier; assay: Endothelial barrier integrity study (FITC-dextran 70 kDa diffusion into hydrogel island); conditions: HUVEC treated with 100 and 500 nM for 3 days; 60 min dextran incubation
Method: To assess the endothelial barrier integrity after drug treatment in the spheroid-in-gel chip, Collagen I (3 mg/mL) and HUVEC were seeded into the chip as described in example 2C. Sub-confluent HUVEC were treated with Paclitaxel (100 and 500 nM) and cultured for 3 days prior to the barrier permeability test. Fluorescence images were taken before and after 1 hr incubation with 10 μg/mL 70 kDa dextran conjugated with fluorescein isothiocyanate (FITC, Sigma Aldrich, St. Louis, MO, USA) loaded in the fluidic channels. Fluorescence intensities within the hydrogel island were expressed as the fold change (time 60 min over 0 min) and normalized to the untreated control.

HUVEC = assay: Live/dead assay (Calcein-AM/PI) of endothelial cells co-cultured with spheroids after drug treatment; conditions: spheroid co-cultured with HUVEC, 3 days treatment
Method: The chip was incubated at 37° C. for 30 min to allow for gelation of collagen and Matrigel, following which DMEM with 10% FBS was added into the fluidic channel. For co-culture with HUVEC, the channel was coated with polydopamine (1 mg/mL) for 30 min at 37° ° C. to facilitate HUVEC adhesion and growth. The polydopamine solution was prepared by dissolving dopamine hydrochloride (Sigma Aldrich, St. Louis, MO, USA) in Tris-HCl buffer, pH 8.5. The channel was washed with 1× Phosphate Buffer Saline (PBS) three times, following which a suspension of HUVEC (1.5 million/mL) was loaded into the channel and allowed to grow for 2 days to reach confluency. The HUVEC were cultivated under static conditions.
Following that, the cells were stained with VE-Cadherin rabbit anti-human CD144 primary antibody (10 μg/mL, Enzo, Farmingdale, NY, USA) overnight at 4° C. On the next day, the cells were rinsed with 0.1% BSA in PBS three times, and fluorescently labeled with AlexaFluor 488 goat anti-rabbit secondary antibody (20 μg/mL, Life Technologies, Carlsbad, CA, USA) for 4 hr at room temperature. […]
The cells/spheroids were then imaged using a fluorescence microscope (Nikon Eclipse Ti, Melville, NY, USA). […] Fluorescence intensity of Calcein-AM and PI was analyzed using ImageJ and calculated according to equation (1) below.

MCF-7 spheroids = assay: Live/dead assay (Calcein-AM/PI) of spheroids-in-gel after drug treatment; conditions: 3 days treatment
Method: For spheroid-in-gel culture on the microarray chip, the PDMS surface was made hydrophilic by a 1-min plasma treatment using a plasma cleaner (PDC-002, Harrick Plasma Inc, Ithaca, NY, USA) to ensure even spreading of hydrogel onto the surface of the island. MCF-7 cells were dissociated and resuspended to a concentration of 1.7 million per mL. Collagen I was added to the suspension at 20 g/mL to enhance spheroid formation. MCF-7 suspension was loaded onto each island (3 L per island), following which the PDMS chip was inverted on top of a water reservoir for a hanging drop culture. […] The chip was maintained 37 °C for 2 days to allow for spheroid formation. […] Upon spheroid formation, the chip was subjected to media evaporation in the 37° C. incubator, following which collagen I (3 mg/mL) or Matrigel (4 mg/mL, Corning. NY, USA) was loaded onto each island (2 L per island) for in-place encapsulation of the spheroid. The chip was incubated at 37° C. for 30 min to allow for gelation of collagen and Matrigel, following which DMEM with 10% FBS was added into the fluidic channel. For co-culture with HUVEC, the channel was coated with polydopamine (1 mg/mL) for 30 min at 37° ° C. to facilitate HUVEC adhesion and growth. The polydopamine solution was prepared by dissolving dopamine hydrochloride (Sigma Aldrich, St. Louis, MO, USA) in Tris-HCl buffer, pH 8.5. The channel was washed with 1× Phosphate Buffer Saline (PBS) three times, following which a suspension of HUVEC (1.5 million/mL) was loaded into the channel and allowed to grow for 2 days to reach confluency. The HUVEC were cultivated under static conditions. […] The cells/spheroids were then imaged using a fluorescence microscope (Nikon Eclipse Ti, Melville, NY, USA). […] Fluorescence intensity of Calcein-AM and PI was analyzed using ImageJ and calculated according to equation (1) below. […] Spheroid area is determined by Hoechst staining. […] The same set of imaging parameters including exposure time and focal plane was used when acquiring the images to minimize inaccuracies in the fluorescence intensity.

## CC(=O)O[C@H]1C(=O)[C@@]2(C)[C@H]([C@H](OC(=O)c3ccccc3)[C@]3(O)C[C@H](OC(=O)[C@H](O)[C@@H](NC(=O)c4ccccc4)c4ccccc4)C(C)=C1C3(C)C)[C@]1(OC(C)=O)CO[C@@H]1C[C@@H]2O [Paclitaxel]
[1]
  Endothelial barrier integrity based on diffusion of FITC-Dextran 70 kDa into the hydrogel islands: impaired the endothelial barrier integrity
HUVEC
  EC death by live/dead staining (Calcein-AM/PI): higher EC death
MCF-7 spheroids; mono-cultured spheroids, PTX 1, 100, 500 nM
  MCF-7 death by live/dead staining (Calcein-AM/PI): higher MCF-7 death with increasing drug concentration
MCF-7 spheroids; with or without HUVEC co-culture, PTX 1, 100, 500 nM
  PI intensity of drug-treated spheroids, mono-culture versus co-culture: negligible differences in PI intensity
MCF-7 spheroids; with or without HUVEC co-culture, normalized to untreated group
  Spheroid Calcein-AM intensity (survival), co-culture versus mono-culture: trend of better survival of spheroids in co-cultures as compared to mono-culture, although no significant difference was observed
